Source: ChEMBL document CHEMBL1201862, “PubChem BioAssay data set” (2004)
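The compound was tested at five concentrations on cells cultured in 96-well plates, with a 48-hour exposure period. Here, GI50 denotes the concentration required for 50% inhibition of growth.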 Activity calls are given as the source filed them. Cut-off read from the data, not from the text of the source: active = GI50 up to about 1.1 µM and inactive = higher.

Columns and labels:
Assay in all cases: NCI tumour cell line growth inhibition, 48 h
786-0 = test system: 786-0
A498 = test system: A498
A549 = test system: A549
ACHN = test system: ACHN
BT-549 = test system: BT-549
CAKI-1 = test system: CAKI-1
CCRF-CEM = test system: CCRF-CEM
COLO 205 = test system: COLO 205
EKVX = test system: EKVX
HCC 2998 = test system: HCC 2998
HCT-116 = test system: HCT-116
HCT-15 = test system: HCT-15
HL-60 = test system: HL-60
HOP-62 = test system: HOP-62
HOP-92 = test system: HOP-92
HT-29 = test system: HT-29
Hs-578T = test system: Hs-578T
IGROV-1 = test system: IGROV-1
K562 = test system: K562
KM12 = test system: KM12
LOX IMVI = test system: LOX IMVI
M14 = test system: M14
MCF7 = test system: MCF7
MDA-MB-231 = test system: MDA-MB-231
MDA-MB-435 = test system: MDA-MB-435
MDA-N = test system: MDA-N
MOLT-4 = test system: MOLT-4
Malme-3M = test system: Malme-3M
NCI-H226 = test system: NCI-H226
NCI-H23 = test system: NCI-H23
NCI-H460 = test system: NCI-H460
NCI-H522 = test system: NCI-H522
NCI/ADR-RES = test system: NCI/ADR-RES
OVCAR-3 = test system: OVCAR-3
OVCAR-4 = test system: OVCAR-4
OVCAR-5 = test system: OVCAR-5
OVCAR-8 = test system: OVCAR-8
PC-3 = test system: PC-3
RPMI-8226 = test system: RPMI-8226
SF-268 = test system: SF-268
SF-295 = test system: SF-295
SK-MEL-28 = test system: SK-MEL-28
SK-MEL-2 = test system: SK-MEL-2
SK-MEL-5 = test system: SK-MEL-5
SK-OV-3 = test system: SK-OV-3
SN12C = test system: SN12C
SNB-19 = test system: SNB-19
SR = test system: SR
SW-620 = test system: SW-620
T47D = test system: T47D
TK-10 = test system: TK-10
U-251 = test system: U-251
UACC-257 = test system: UACC-257
UACC-62 = test system: UACC-62
UO-31 = test system: UO-31

Structure (SMILES): COc1cc(CCC(=O)O)c2cc3ccccc3cc2c1O
- GI50 (786-0): 16.8 µM (inactive)
- GI50 (A498): 33.6 µM (inactive)
- GI50 (A549): 22.1 µM (inactive)
- GI50 (ACHN): 17.3 µM (inactive)
- GI50 (BT-549): 17.1 µM (inactive)
- GI50 (CAKI-1): 19.6 µM (inactive)
- GI50 (CCRF-CEM): 3.22 µM (inactive)
- GI50 (COLO 205): 18 µM (inactive)
- GI50 (EKVX): 24.7 µM (inactive)
- GI50 (HCC 2998): 29 µM (inactive)
- GI50 (HCT-116): 17.2 µM (inactive)
- GI50 (HCT-15): 18.2 µM
- GI50 (HL-60): 16.5 µM (inactive)
- GI50 (HOP-62): 17.6 µM (inactive)
- GI50 (HOP-92): 30.9 µM (inactive)
- GI50 (HT-29): 21.1 µM (inactive)
- GI50 (Hs-578T): 39.6 µM (inactive)
- GI50 (IGROV-1): 18.7 µM (inactive)
- GI50 (K562): 20.8 µM (inactive)
- GI50 (KM12): 20.5 µM (inactive)
- GI50 (LOX IMVI): 21.5 µM (inactive)
- GI50 (M14): 21.7 µM (inactive)
- GI50 (MCF7): 16.4 µM (inactive)
- GI50 (MDA-MB-231): 18.9 µM (inactive)
- GI50 (MDA-MB-435): 15.3 µM (inactive)
- GI50 (MDA-N): 17.3 µM (inactive)
- GI50 (MOLT-4): 8.89 µM (inactive)
- GI50 (Malme-3M): 18.4 µM (inactive)
- GI50 (NCI-H226): 32.6 µM (inactive)
- GI50 (NCI-H23): 19.1 µM (inactive)
- GI50 (NCI-H460): 23.2 µM (inactive)
- GI50 (NCI-H522): 20.7 µM (inactive)
- GI50 (NCI/ADR-RES): 25.6 µM (inactive)
- GI50 (OVCAR-3): 21.4 µM (inactive)
- GI50 (OVCAR-4): 15.6 µM (inactive)
- GI50 (OVCAR-5): 20.4 µM (inactive)
- GI50 (OVCAR-8): 16.3 µM (inactive)
- GI50 (PC-3): 18.5 µM (inactive)
- GI50 (RPMI-8226): 12.4 µM (inactive)
- GI50 (SF-268): 19.6 µM (inactive)
- GI50 (SF-295): 20 µM (inactive)
- GI50 (SK-MEL-28): 22.4 µM (inactive)
- GI50 (SK-MEL-2): 18.3 µM (inactive)
- GI50 (SK-MEL-5): 15.1 µM (inactive)
- GI50 (SK-OV-3): 67.1 µM (inactive)
- GI50 (SN12C): 17.8 µM (inactive)
- GI50 (SNB-19): 23.5 µM (inactive)
- GI50 (SR): 15.6 µM (inactive)
- GI50 (SW-620): 21.4 µM (inactive)
- GI50 (T47D): 14.6 µM (inactive)
- GI50 (TK-10): 33.3 µM (inactive)
- GI50 (U-251): 16.4 µM (inactive)
- GI50 (UACC-257): 16.1 µM (inactive)
- GI50 (UACC-62): 18.4 µM (inactive)
- GI50 (UO-31): 17.8 µM (inactive)
